In patent publication US10981932B2, “Macrocyclic indole derivatives” (Bayer Aktiengesellschaft, priority 2016, dated 2021) one finds IC50 and EC50 data, which are given here for 9 compounds.

For data set [1], the target named is MCL-1 (Homo sapiens, UniProt Q07820). Kind of data set: Protein-protein interaction assay MCL-1/Noxa BH3 peptide (MCL-1 assay), TR-FRET. The class given is binding. Conditions: MBP-MCL-1 / Noxa BH3-derived peptide, median. Summed up: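 TR-FRET, 665/622 nm emission ratio (excitation 330–350 nm), measured MCL-1/Noxa complex formation. 1 nM MBP-MCL-1, 50 mM Tris/HCl pH 7, 0.1% BGG, 2 mM DTT. Incubation 1 h at 22 °C, then overnight at 4 °C. IC50 by 4-parameter regression, normalized to DMSO (0%) and no-MCL-1 (100%) controls.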
A general note: TR-FRET usually uses a lanthanide donor and a delayed reading to cut background.

Data set [2] has as its system SUDHL5. Kind of data set: Induction of cytotoxicity (CellTiter-Glo, 5 h), SUDHL5.
Data set [3] has as its system SUDHL10. Kind of data set: Induction of caspase-3/7 activity (Caspase-Glo 3/7), SUDHL10. The class given is cell-based. Conditions: caspase-3/7 induction, SUDHL10 cells, 3 h treatment, median. In short, it runs like this: (§1)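 DLBCL cells treated with compounds for 3 h at 37 °C, then caspase-3/7 activity read by Caspase-Glo 3/7 luminescence. Medium-only background subtracted; EC50 fitted with C0 fixed at 1 and top set to the reference compound's maximal induction.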

For data set [4], the system named is SUDHL5. Kind of data set: Induction of caspase-3/7 activity (Caspase-Glo 3/7), SUDHL5. Conditions: caspase-3/7 induction, SUDHL5 cells, 3 h treatment, median. The class given is cell-based. In short, it runs like this: as §1
The test system of data set [5] is MV-4-11. Kind of data set: Anti-proliferative effect (CellTiter-Glo, 72 h), MV-4-11. The class given is cell-based. Conditions: MV-4-11 cells, median, read-out: IC50 antiproliferation assay MV-4-11 [M] (median). How it is done: Assessment of the Anti-Proliferative Effect of Compounds in Different Cell Lines
The impact of compounds on the proliferation of different cell lines was assessed using the CellTiter-Glo® Luminescent Cell Viability reagent from Promega (G7573). Of note, SUDHL10 and SUDHL5 (DLBCL), NCI-H929 (Multiple Myeloma), A2780 (ovarian carcinoma) as well as MV-4-11(AML) cells are sensitive to MCL-1 inhibition.
In parallel, cells were plated in a reference (day 0) plate for time zero determination.
Rim wells were excluded. The cells were incubated for 72 h hours in a humidified incubator at 37° C. The day 0 plate was measured by adding 30 μl/well of CTG solution (CellTiter-Glo® Luminescent Cell Viability reagent, Promega G7573) to time zero wells in the reference plate followed by a 10 minutes incubation and luminescence reading at 0.1 ms, using the PHERAstar FS microplate reader (BMG Labtech).
After 72 h incubation, the treated plates were measured in the same way as the day 0 plate mentioned above.
In general terms: ATP-based viability assays read luminescence as a measure of living cells.

For data set [6], the system named is A2780. Kind of data set: Anti-proliferative effect (CellTiter-Glo, 72 h), A2780. The class given is cell-based. Conditions: A2780 cells, median, read-out: IC50 antiproliferation assay A2780 [M] (median). In short, it runs like this: (§2)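 Cells were treated with compounds for 72 h at 37 °C in a humidified incubator, and viability was measured by CellTiter-Glo luminescence. A parallel day 0 plate, read the same way, gave the time zero baseline.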

The test system of data set [7] is SUDHL10. Kind of data set: Induction of cytotoxicity (CellTiter-Glo, 5 h), SUDHL10.
For data set [8], the system named is SUDHL10. Kind of data set: Anti-proliferative effect (CellTiter-Glo, 72 h), SUDHL10. It is filed as cell-based. Conditions: SUDHL10 cells, antiproliferation, 72 h incubation, median, read-out: Antiproli SUDHL10 [M] (median). In short, it runs like this: as §2
The test system of data set [9] is OPM2. Kind of data set: Anti-proliferative effect (CellTiter-Glo, 72 h), OPM2. It is filed as cell-based. Conditions: OPM2 cells, median, read-out: IC50 antiproliferation assay OPM2 [M] (median). Summed up: as §2
The test system of data set [10] is SUDHL5. Kind of data set: Anti-proliferative effect (CellTiter-Glo, 72 h), SUDHL5. It is filed as cell-based. As to conditions: SUDHL5 cells, antiproliferation, 72 h incubation, median, read-out: Antiproli SUDHL5 [M] (median). In short, it runs like this:
as §2

[11] abbreviates: read-out: Cytotox SUDHL5 [M] (median), SUDHL5 cells, cytotoxicity induction, CellTiter-Glo, 5 h, median.
Setting [12] is: Homo sapiens, SU-DHL10, 5 h, read-out: Cytotox SUDHL10 [M] (median), SUDHL10 cells, cytotoxicity induction, CellTiter-Glo, 5 h, median.
Where [13] appears, read: Homo sapiens, SU-DHL-5, 5 h, read-out: Cytotox SUDHL5 [M] (median), SUDHL5 cells, cytotoxicity induction, CellTiter-Glo, 5 h, median.

Like-named read-outs stand apart in the source and are kept apart here. Bounds are passed on as bounds.

Chain of MCL-1 (Q07820 whole entry): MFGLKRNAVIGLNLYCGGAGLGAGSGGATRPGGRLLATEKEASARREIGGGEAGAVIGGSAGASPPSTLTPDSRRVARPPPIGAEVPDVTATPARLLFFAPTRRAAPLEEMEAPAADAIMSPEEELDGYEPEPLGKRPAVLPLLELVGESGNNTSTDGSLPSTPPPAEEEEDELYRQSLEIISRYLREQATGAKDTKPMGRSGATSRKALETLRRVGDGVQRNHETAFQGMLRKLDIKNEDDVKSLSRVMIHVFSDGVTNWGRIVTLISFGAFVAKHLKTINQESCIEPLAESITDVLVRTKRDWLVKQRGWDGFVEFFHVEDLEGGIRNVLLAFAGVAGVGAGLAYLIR

As a reminder, the EC50 is the concentration that produces a half-maximal response. A higher EC50 goes with a need for much substance. For `Cc1nn(C)c2c1-c1cccc3c(CCCOc4cccc5ccccc45)c(C(=O)O)n(c13)CCCCN(C)C2` (single isomer, unassigned) [Example 239, (−)-1,3,15-trimethyl-7-[3-(naphthalen-1-yloxy)propyl]-1,10,11,12,13,14,15,16-octahydropyrazolo[4′,3′:4,5][1,7]diazacyclododecino[3,2,1-hi]indole-8-carboxylic Acid], the IC50 in data set [1] was 0.0927 µM; in [2] (Homo sapiens, SU-DHL-5, 5 h, read-out: Cytotox SUDHL5 [M] (median), SUDHL5 cells, cytotoxicity induction, CellTiter-Glo, 5 h incubation, median) it was above 3.3e-05 M; in data set [5] (Homo sapiens, MV4-11, 72 h), 1.07e-05 M; in data set [6] (Homo sapiens, A2780, 72 h), 2.27e-05 M; in [7] (Homo sapiens, SU-DHL10, 5 h, read-out: Cytotox SUDHL10 [M] (median), SUDHL10 cells, cytotoxicity induction, CellTiter-Glo, 5 h incubation, median) it was 3.03e-05 M. Further, the EC50 in data set [3] (Homo sapiens, SU-DHL10, 3 h) was above 33 µM; in data set [4] (Homo sapiens, SU-DHL-5, 3 h), above 33 µM.
On to `CCc1nn(C)c2c1-c1cccc3c(CCCOc4cccc5cc(Cl)ccc45)c(C(=O)O)n(c13)CCCCOC2` (single isomer, unassigned; enantiomer 1) [Example 305, 7-{3-[(6-chloronaphthalen-1-yl)oxy]propyl}-3-ethyl-1-methyl-1,10,11,12,13,15-hexahydropyrazolo[4′,3′:9,10][1,6]oxazacycloundecino[8,7,6-hi]indole-8-carboxylic Acid (Enantiomer 1)], for which the IC50 in [1] was 0.00536 µM; in [5] (Homo sapiens, MV4-11, 72 h), 1.36e-05 M; in data set [6], above 3.3e-05 M.
For `Cc1ccc2c(OCCCc3c(C(=O)O)n4c5c(cccc35)-c3c(nn(C)c3C)COCCCC4)cccc2c1` (single isomer, unassigned; enantiomer 1) [Example 308, 2,3-dimethyl-7-{3-[(6-methylnaphthalen-1-yl)oxy]propyl}-2,10,11,12,13,15-hexahydropyrazolo[4′3′:9,10][1,6]oxazacycloundecino[8,7,6-hi]indole-carboxylic Acid (Enantiomer 1)], the IC50 in data set [1] was 0.00507 µM; in data set [2] (setting [11]), 5.61e-06 M; in data set [5] (Homo sapiens, MV4-11, 72 h), above 3.3e-05 M; in data set [6] (Homo sapiens, A2780, 72 h), above 3.3e-05 M; in data set [7] (setting [12]), above 3.3e-05 M. The EC50 was above 33 µM in data set [3] (Homo sapiens, SU-DHL10, 3 h) and 7.18 µM in [4].
For `Cc1c2c(nn1C)COCCCCn1c(C(=O)O)c(CCCOc3cccc4cc(C(F)(F)F)ccc34)c3cccc-2c31` (single isomer, unassigned; enantiomer 1) [Example 311, 2,3-dimethyl-7-(3-{[6-(trifluoromethyl)naphthalen-1-yl]oxy}propyl)-2,10,11,12,13,15-hexahydropyrazolo[4′,3′:9,10][1,6]oxazacycloundecino[8,7,6-hi]indole-8-carboxylic Acid (Enantiomer 1)], the IC50 amounted to 0.543 µM in data set [1]; 2.12e-05 M in data set [2] (setting [13]); 1.16e-05 M in data set [5] (Homo sapiens, MV4-11, 72 h); 1.11e-05 M in [6] (Homo sapiens, A2780, 72 h); 1.49e-05 M in data set [7] (setting [12]). In addition, the EC50 is above 33 µM in data set [3] (Homo sapiens, SU-DHL10, 3 h) and above 33 µM in [4] (Homo sapiens, SU-DHL-5, 3 h).
With `CCc1nn(C)c2c1-c1cccc3c(CCCOc4cccc5cc(C(F)(F)F)ccc45)c(C(=O)O)n(c13)CCCCOC2` (single isomer, unassigned; enantiomer 1) [Example 314, 3-ethyl-1-methyl-7-(3-{[6-(trifluoromethyl)naphthalen-1-yl]oxy}propyl)-1,10,11,12,13,15-hexahydropyrazolo[4′,3′:9,10][1,6]oxazacycloundecino[8,7,6-hi]indole-8-carboxylic Acid (Enantiomer 1)], the IC50 amounted to 0.0335 µM in [1]; 1.56e-05 M in data set [2] (setting [13]); 1.35e-05 M in [5] (Homo sapiens, MV4-11, 72 h); 1.56e-05 M in data set [6] (Homo sapiens, A2780, 72 h); 2.09e-05 M in data set [7] (setting [12]). In addition, the EC50 is above 33 µM in data set [3] (Homo sapiens, SU-DHL10, 3 h) and above 33 µM in data set [4] (Homo sapiens, SU-DHL-5, 3 h).
As for `CCOCc1nn(C)c2c1-c1cccc3c(CCCOc4cccc5ccccc45)c(C(=O)O)n(c13)CCCCOC2` (single isomer, unassigned; enantiomer 2) [Example 170, 3-(ethoxymethyl)-1-methyl-7-[3-(naphthalen-1-yloxy)propyl]-1,10,11,12,13,15-hexahydropyrazolo[4′,3′:9,10][1,6]oxazacycloundecino[8,7,6-hi]indole-8-carboxylic Acid (Enantiomer 2)], the IC50 in data set [1] is 0.00297 µM; in [8], 4.36e-06 M; in [2] (read-out: Cytotox SUDHL5 [M] (median), SUDHL5 cells, cytotoxicity induction, CellTiter-Glo, 5 h incubation, median), 6.94e-06 M; in data set [9], 1.34e-05 M; in data set [10], 1.01e-05 M; in [6], 2.67e-05 M. Also, the IC50 in data set [7] (read-out: Cytotox SUDHL10 [M] (median), SUDHL10 cells, cytotoxicity induction, CellTiter-Glo, 5 h incubation, median) amounted to 2e-05 M. Besides, the EC50 in [3] stood at 15.6 µM; in data set [4], 5.36 µM.
With `CCc1nn(C)c2c1-c1cccc3c(CCCOc4cccc5cc(Cl)ccc45)c(C(=O)O)n(c13)CCCCOC2` (single isomer, unassigned; enantiomer 2) [Example 306, 7-{3-[(6-chloronaphthalen-1-yl)oxypropyl}-3-ethyl-1-methyl-1,10,11,12,13,15-hexahydropyrazolo[4′,3′:9,10](1,6]oxazacycloundecino[8,7,6-hi]indole-8-carboxylic Acid (Enantiomer 2)], the IC50 in data set [1] came to 0.286 µM; in data set [5], 1.5e-05 M; in [6], 1.02e-05 M.
As to `Cc1ccc2c(OCCCc3c(C(=O)O)n4c5c(cccc35)-c3c(nn(C)c3C)COCCCC4)cccc2c1` (single isomer, unassigned; enantiomer 2) [Example 309, 2,3-dimethyl-7-{3-[(6-methylnaphthalen-1-yl)oxy]propyl}-2,10,11,12,13,15-hexahydropyrazolo[4′3′:9,10][1,6]oxazacycloundecino[8,7,6-hi]indole-8-carboxylic Acid (Enantiomer 2)], the IC50 in data set [1] is 0.133 µM; in [2] (setting [11]) it was above 3.3e-05 M; in data set [5], above 3.3e-05 M; in data set [6], above 3.3e-05 M; in data set [7] (read-out: Cytotox SUDHL10 [M] (median), SUDHL10 cells, cytotoxicity induction, CellTiter-Glo, 5 h, median), above 3.3e-05 M. The EC50 in data set [3] and in data set [4] was above 33 µM in each case.
Take `Cc1c2c(nn1C)COCCCCn1c(C(=O)O)c(CCCOc3cccc4cc(C(F)(F)F)ccc34)c3cccc-2c31` (single isomer, unassigned; enantiomer 2) [Example 312, 2,3-dimethyl-7-(3-{[6-(trifluoromethyl)naphthalen-1-yl]oxy}propyl)-2,10,11,12,13,15-hexahydropyrazolo[4′,3′:9,10][1,6]oxazacycloundecino[8,7,6-hi]indole-8-carboxylic Acid (Enantiomer 2)]: the IC50 in [1] was 0.022 µM; in data set [5], 1.28e-05 M; in [6], 1.05e-05 M.
